These results are taken from patent US20110046190A1, “COMBINATIONS COMPRISING A SELECTIVE CYCLOOXYGENASE-2 INHIBITOR” (priority 2001, published 2011).

Where two headings read alike, the source gives them in different places.

One data set has as its system intestinal polyps. Briefly: mouse model of adenomatous polyposis, prevention and treatment of intestinal polyps. In kind it is in vivo. Conditions: COX 125 ppm in feed ad libitum. On the procedure: (§1) 5-methyl-2-(2′-chloro-6′-fluoro-anilino)-phenyl acetic acid (“COX”) and (+)-discodermolide (“disco”) are tested as single agents and together as combination therapy in a mouse model of adenomatous polyposis for the prevention and treatment of intestinal polyps. (+)-Discodermolide is administered once intravenously to the mice at 15 mg/kg as a solution in 16.7% Chremophor EI, 8.3% ethanol, and 75% D5W. COX is administered in the feed mix at a concentration of 125 ppm.
(§2) 5-methyl-2-(2′-chloro-6′-fluoro-anilino)-phenyl acetic acid (“COX”) and (R)-4-(4-((1-phenylethyl)amino)-7H-pyrrolo(2,3-d)pyrimidin-6-yl)-phenol (“EGFR”) are tested as single agents and together as combination therapy in a mouse model of adenomatous polyposis for the prevention and treatment of intestinal polyps. EGFR is administered to the mice orally at 50 mg/kg, as a suspension in 0.5% carboxymethylcellulose, b.i.d., 5 days a week for three weeks. COX is administered in the feed mix at a concentration of 125 ppm.
(§3) 5-methyl-2-(2′-chloro-6′-fluoro-anilino)-phenyl acetic acid (“COX”) and 1-(4-chloroanilino)-4-(4-pyridylmethyl)phthalazine (“VEGFR”) are tested as single agents and together as combination therapy in a mouse model of adenomatous polyposis for the prevention and treatment of intestinal polyps. VEGFR is administered to the mice orally at 100 mg/kg, 5 times a week for three weeks. COX is administered in the feed mix at a concentration of 125 ppm.

For data set [1] the following is noted: Example 4; DU 145 prostate tumors in mice; COX 125 ppm in feed; VEGF 100 mg/kg p.o. q.d. 5x/week for three weeks. How it is done: (§4) 5-methyl-2-(2′-chloro-6′-fluoro-anilino)-phenyl acetic acid (“COX”) and 1-(4-chloroanilino)-4-(4-pyridylmethyl)phthalazine (“VEGFR”) are tested as single agents and together as combination therapy in a mouse model of prostrate cancer (orthoscopically implanted DU 145 prostate tumor cell line) for efficacy against established tumors. VEGFR is administered to the mice orally at 100 mg/kg, 5 times a week for three weeks, as a suspension in 0.5% microcrystalline cellulose, 0.1% Tween 80 in water. COX is administered in the feed mix at a concentration of 125 ppm.

Data set [2] deals with DU 145 prostate tumor cell line. Description: mouse model of prostate cancer, efficacy against established tumors. Conditions: Example 4; DU 145 prostate tumors in mice; COX 125 ppm in feed; VEGF 100 mg/kg p.o. q.d. 5x/week for three weeks. In kind it is in vivo. How it is done:
as §4

For data set [3] the following is noted: COX 125 ppm in feed ad libitum. On the procedure:
as §1, §2, §3

The test system of data set [4] is tumor vascular permeability. Particulars: studies in humans; cited from earlier work.
The mark [5] stands for this setting: Example 1, first experiment, disco 15 mg/kg i.v. once.
The mark [6] stands for this setting: Example 1, second (duplicate) experiment, disco 15 mg/kg i.v. once.
Setting [7] is: Example 2, first experiment, EGFR 50 mg/kg p.o. b.i.d. 5x/week for three weeks.
The mark [8] stands for this setting: Example 2, second (duplicate) experiment, EGFR 50 mg/kg p.o. b.i.d. 5x/week for three weeks.
[9] abbreviates: Example 3, first experiment, VEGF 100 mg/kg p.o. 5x/week for three weeks.
[10] abbreviates: Example 3, second (duplicate) experiment, VEGF 100 mg/kg p.o. 5x/week for three weeks.

Turning to `Cc1ccc(Nc2c(F)cccc2Cl)c(CC(=O)O)c1` [COX, 5-methyl-2-(2′-chloro-6′-fluoro-anilino)-phenyl acetic acid], the “% T/C (polyps)” value is 56% with intestinal polyps (setting [5]); 57% with intestinal polyps (setting [6]); 43% in the data set with intestinal polyps (setting [7]); 36% with intestinal polyps (setting [8]); 44% with intestinal polyps (setting [9]); 44% in the data set on intestinal polyps (setting [10]). Besides, the “Mean Intestinal Polyp Count (# ± SEM)” value in the data set on intestinal polyps (setting [5]) is 15 ± 0.4 #; with intestinal polyps (setting [6]) it was 13 ± 0.2 #; with intestinal polyps (setting [7]), 9 ± 0.4 #; in the data set on intestinal polyps (setting [8]), 12 ± 0.9 #; in the data set with intestinal polyps (setting [9]) it was 12 ± 0.22 #; with intestinal polyps (setting [10]) it was 13 ± 0.18 #. Further, the Dead/Total in data set [1] is reported as 1/12; in data set [3] (setting [5]), 0/7; in data set [3] (setting [6]) it was 0/7; in data set [3] (setting [7]), 0/7; in data set [3] (setting [8]) it was 0/7; in data set [3] (setting [9]), 0/7. Moreover, the Dead/Total in data set [3] (setting [10]) is given as 0/7. Also, the “% T/C (tumors)” value in data set [2] is 80%. Also, the “Mean Tumor Weight (mg ± SEM)” value in data set [2] is recorded as 343 ± 52 mg.
In the case of (+)-discodermolide, the figures for the “% T/C (polyps)” value in the data set with intestinal polyps (setting [5]) and in the data set with intestinal polyps (setting [6]) were 56% and 64%, respectively. Further, the figures for the “Mean Intestinal Polyp Count (# ± SEM)” value with intestinal polyps (setting [5]) and in the data set with intestinal polyps (setting [6]) were 15 ± 0.2 # and 15 ± 0.22 #, respectively. For the same molecule, the “% Body Wt. Change” value in data set [3] (setting [5]) is given as “+0.9 ± 0.1%”; in data set [3] (setting [6]), “+4.0 ± 0.12%”. The Dead/Total in data set [3] (setting [5]) and in data set [3] (setting [6]) was 0/7 throughout.
As to `C[C@@H](Nc1ncnc2[nH]c(-c3ccc(O)cc3)cc12)c1ccccc1` [EGFR, (R)-4-(4-((1-phenylethyl)amino)-7H-pyrrolo(2,3-d)pyrimidin-6-yl)-phenol], the “% T/C (polyps)” value in the data set with intestinal polyps (setting [7]) is given as 37%; in the data set with intestinal polyps (setting [8]), 27%. The “Mean Intestinal Polyp Count (# ± SEM)” value in the data set on intestinal polyps (setting [7]) was 8 ± 0.2 #; with intestinal polyps (setting [8]), 9 ± 0.3 #. The Dead/Total in data set [3] (setting [7]) and in data set [3] (setting [8]) was 0/7 in each case.
With `Clc1ccc(Nc2nnc(Cc3ccncc3)c3ccccc23)cc1` [VEGF, 1-(4-chloroanilino)-4-(4-pyridylmethyl)phthalazine], in the data set on intestinal polyps (setting [9]), the “% T/C (polyps)” value was determined as 57% and the “Mean Intestinal Polyp Count (# ± SEM)” value is listed as 15 ± 0.48 #. Besides, in the data set with intestinal polyps (setting [10]), the “% T/C (polyps)” value was 60% and the “Mean Intestinal Polyp Count (# ± SEM)” value is on record as 17 ± 0.19 #. In addition, the Dead/Total in data set [1] is 1/12. In addition, in data set [2], the “% T/C (tumors)” value came to 57% and the “Mean Tumor Weight (mg ± SEM)” value was determined as 243 ± 37 mg. In data set [4], the tolerability result is on record as “well tolerated” and the tumor vascular permeability entry is reported as “reduce tumor vascular permeability”. The Dead/Total in data set [3] (setting [9]) is given as 0/6. The Dead/Total in data set [3] (setting [10]) was 0/7.
